In patent publication US11180504B2 (ORCHID PHARMA LTD., priority 2016, dated 2021):
Values after ≈ are worked out from the molar mass of the structure shown. Like-named read-outs stand apart in the source and are kept apart here.

What was measured:
[1] = system: carbapenem sensitive Escherichia coli; assay: MIC by broth micro-dilution (CLSI), carbapenem sensitive E. coli; assay type: cell-based
[2] = system: carbapenem sensitive Pseudomonas aeruginosa; assay: MIC by broth micro-dilution (CLSI), carbapenem sensitive P. aeruginosa; assay type: cell-based
[3] = system: carbapenemase producing K. pneumoniae; assay: MIC by broth micro-dilution (CLSI), carbapenemase producing K. pneumoniae; assay type: cell-based, Klebsiella pneumoniae
[4] = system: methicillin-sensitive Staphylococcus aureus; assay: MIC by broth micro-dilution (CLSI), methicillin-sensitive S. aureus; assay type: cell-based; details: MSSA S. aureus ATCC29213
[5] = Escherichia coli, ATCC25922, ESBL −ve E. coli ATCC25922, read-out: MIC
[6] = Pseudomonas aeruginosa, ATCC27853, Meropenem susceptible P. aeruginosa ATCC27853, read-out: MIC
[7] = Klebsiella pneumoniae, ATCCBAA1705, KPC-2 K. pneumoniae ATCC BAA-1705, read-out: MIC
[8] = Staphylococcus aureus, ATCC 29213 / MSSA, read-out: MIC

MIC [1, 5] [µg/mL] | MIC [2, 6] [µg/mL] | MIC [3, 7] [µg/mL] | MIC [4, 8] [µg/mL] | MIC ([1]; ESBL −ve E. coli ATCC25922) [µg/mL] | MIC ([2]; Meropenem susceptible P. aeruginosa ATCC27853) [µg/mL] | MIC ([3]; KPC-2 K. pneumoniae ATCC BAA-1705) [µg/mL] | MIC [4] [µg/mL] | SMILES
0.25 (≈ 0.404 µM) | 2 (≈ 3.23 µM) | 1 (≈ 1.62 µM) | 2 (≈ 3.23 µM) |  |  |  |  | C[C@@H](NC(=O)Cn1cnnn1)[C@H]1C(=O)N2C(C(=O)O)=C(S[C@@H]3CN[C@H](C(=O)N4CCC(CNCC(N)=O)CC4)C3)[C@H](C)[C@H]12 [Example 437, (4R,5S,6R)-6-((R)-1-(2-(1H-tetrazol-1-yl)acetamido)ethyl)-3-((3S,5S)-5-(4-((2-amino-2-oxoethylamino)methyl)piperidine-1-carbonyl)pyrrolidin-3-ylthio)-4-methyl-7-oxo-1-azabicyclo[3.2.0]hept-2-ene-2-carboxylic acid]
 |  |  |  | 0.25 (≈ 0.436 µM) | 1 (≈ 1.74 µM) | 1 (≈ 1.74 µM) | 2 (≈ 3.49 µM) | C[C@@H](NC(=O)Cn1cnnn1)[C@H]1C(=O)N2C(C(=O)O)=C(S[C@@H]3CN[C@H](C(=O)N4CCC5CNCCC54)C3)[C@H](C)[C@H]12 (stereo partly drawn) [Example 439, (4R,5S,6R)-6-((R)-1-(2-(1H-tetrazol-1-yl)acetamido)ethyl)-4-methyl-3-((3S,5S)-5-(octahydro-1H-pyrrolo[3,2-c]pyridine-1-carbonyl)pyrrolidin-3-ylthio)-7-oxo-1-azabicyclo[3.2.0]hept-2-ene-2-carboxylic acid]
0.25 (≈ 0.444 µM) | 1 (≈ 1.77 µM) | 1 (≈ 1.77 µM) | 2 (≈ 3.55 µM) |  |  |  |  | C[C@@H](NC(=O)Cn1cnnn1)[C@H]1C(=O)N2C(C(=O)O)=C(S[C@@H]3CN[C@H](C(=O)N4C[C@H](N)C[C@H]4CO)C3)[C@H](C)[C@H]12 [Example 440, (4R,5S,6R)-6-((R)-1-(2-(1H-tetrazol-1-yl)acetamido)ethyl)-3-((3S,5S)-5-((2S,4R)-4-amino-2-(hydroxymethyl)pyrrolidine-1-carbonyl)pyrrolidin-3-ylthio)-4-methyl-7-oxo-1-azabicyclo[3.2.0]hept-2-ene-2-carboxylic acid]
0.25 (≈ 0.39 µM) | 8 (≈ 12.5 µM) | 2 (≈ 3.12 µM) | 4 (≈ 6.24 µM) |  |  |  |  | C[C@@H](NC(=O)Cn1cnnn1)[C@H]1C(=O)N2C(C(=O)O)=C(S[C@@H]3CN[C@H](C(=O)N4C[C@@H](N)C[C@H]4CNS(C)(=O)=O)C3)[C@H](C)[C@H]12 [Example 441, (4R,5S,6R)-6-((R)-1-(2-(1H-tetrazol-1-yl)acetamido)ethyl)-3-((3S,5S)-5-((2S,4S)-4-amino-2-(methylsulfonamido-methyl)pyrrolidine-1-carbonyl)pyrrolidin-3-ylthio)-4-methyl-7-oxo-1-azabicyclo[3.2.0]hept-2-ene-2-carboxylic acid]
0.125 (≈ 0.206 µM) | 0.5 (≈ 0.824 µM) | 1 (≈ 1.65 µM) | 2 (≈ 3.3 µM) |  |  |  |  | C[C@@H](NC(=O)Cn1cnnn1)[C@H]1C(=O)N2C(C(=O)O)=C(S[C@@H]3CN[C@H](C(=O)N4CCN(C[C@@H](O)CN)CC4)C3)[C@H](C)[C@H]12 [Example 442, (4R,5S,6R)-6-((R)-1-(2-(1H-tetrazol-1-yl)acetamido)ethyl)-3-((3S,5S)-5-(4-((S)-3-amino-2-hydroxypropyl)piperazioe-1-carbonyl)pyrrolidin-3-ylthio)-4-methyl-7-oxo-1-azabicyclo[3.2.0]hept-2-ene-2-carboxylic acid]
0.5 (≈ 0.827 µM) | 1 (≈ 1.65 µM) | 2 (≈ 3.31 µM) | 4 (≈ 6.61 µM) |  |  |  |  | C[C@@H](NC(=O)Cn1cnnn1)[C@H]1C(=O)N2C(C(=O)O)=C(S[C@@H]3CN[C@H](C(=O)N4CCC(CNCCN)CC4)C3)[C@H](C)[C@H]12 [Example 443, (4R,5S,6R)-6-((R)-1-(2-(1H-tetrazol-1-yl)acetamido)ethyl)-3-((3S,5S)-5-(4-((2-aminoethylamino)methyl)piperidine-1-carbonyl)pyrrolidin-3-ylthio)-4-methyl-7-oxo-1-azabicyclo[3.2.0]hept-2-ene-2-carboxylic acid]
0.5 (≈ 0.889 µM) | 2 (≈ 3.55 µM) | 2 (≈ 3.55 µM) | 2 (≈ 3.55 µM) |  |  |  |  | C[C@@H](NC(=O)Cn1cnnn1)[C@H]1C(=O)N2C(C(=O)O)=C(S[C@@H]3CN[C@H](C(=O)N4C[C@H](N)C[C@H]4CN)C3)[C@H](C)[C@H]12 [Example 444]
